Assay results from patent publication US11464770B2, “Anticancer pharmaceutical composition” (NATIONAL CANCER CENTER, priority 2016, dated 2022).
pIC50: −log10 of the molar value. Where two headings read alike, the source gives them in different places.

Legend:
[1] = tested on: blood cancer cell lines (e.g. HL-60, Jurkat, Raji, Ramos, Daudi, MOLT-4); test: Cell based assay, cell viability (CellTiter-Glo), blood cancer cell lines; details: Homo sapiens
How it was run: (§1)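 Plated cells (24 h) → compound to 0–2 μM final → 72 h → CellTiter-Glo ATP luminescence.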

[2] = tested on: pancreatic cancer cell lines (e.g. MIA PaCa-2); test: Cell based assay, cell viability (CellTiter-Glo), pancreatic cancer cell lines; details: Homo sapiens
How it was run: as §1

[3] = MV4-11, blood cancer cell line MV-4-11, 72 hours, read-out: IC50, MV-4-11
[4] = blood cancer cell line Daudi, 72 hours, read-out: IC50, Daudi
[5] = blood cancer cell line HL-60, 72 hours, read-out: IC50, HL-60
[6] = blood cancer cell line Jurkat, 72 hours, read-out: IC50, Jurkat
[7] = blood cancer cell line MOLT-4, 72 hours, read-out: IC50, MOLT-4
[8] = blood cancer cell line Raji, 72 hours, read-out: IC50, Raji
[9] = blood cancer cell line Ramos (RA 1), 72 hours, read-out: IC50, Ramos (RA 1)
[10] = blood cancer cell line U-937, 72 hours, read-out: IC50, U-937
[11] = pancreatic cancer cell line AsPC-1, 72 hours, read-out: IC50, AsPC-1
[12] = pancreatic cancer cell line BxPC-3, 72 hours, read-out: IC50, BxPC-3
[13] = pancreatic cancer cell line CFPAC-1, 72 hours, read-out: IC50, CFPAC-1
[14] = pancreatic cancer cell line Capan-1, 72 hours, read-out: IC50, Capan-1
[15] = pancreatic cancer cell line Capan-2, 72 hours, read-out: IC50, Capan-2
[16] = pancreatic cancer cell line MIA PaCa-2, 72 hours, read-out: IC50, MIA PaCa-2
[17] = pancreatic cancer cell line PANC-1, 72 hours, read-out: IC50, PANC-1

Compound | pIC50 [1, 3] | pIC50 [1, 4] | pIC50 [1, 5] | pIC50 [1, 6] | pIC50 [1, 7] | pIC50 [1, 8] | pIC50 [1, 9] | pIC50 [1, 10] | pIC50 [2, 11] | pIC50 [2, 12] | pIC50 [2, 13] | pIC50 [2, 14] | pIC50 [2, 15] | pIC50 [2, 16] | pIC50 [2, 17]
CC(=O)c1c([S+]([O-])Cc2ccc(C(C)(C)C)cc2)[nH]c2c(Br)ccc(Cl)c2c1=O (stereo not drawn) [Compound 60, 3-acetyl-8-bromo-2-((4-(tert-butyl)benzyl)sulfinyl)-5-chloroquinolin-4(1H)-one] | < 5.70 | < 5.70 | < 5.70 | 5.90 | 5.79 | < 5.70 | < 5.70 | < 5.70 | < 5.70 | < 5.70 | < 5.00 | < 5.70 | < 5.70 | < 5.70 | < 5.70
CC(=O)c1c([S+]([O-])Cc2cccnc2)[nH]c2c(Br)ccc(Cl)c2c1=O (stereo not drawn) [Compound 84, 3-acetyl-8-bromo-5-chloro-2-((pyridin-3-ylmethyl)sulfinyl)quinolin-4(1H)-one] | 6.09 | 5.95 | 5.83 | 6.01 | 6.01 | 5.82 | 6.00 | 5.83 | 5.74 | < 5.70 | < 5.00 | 5.82 | < 5.70 | 6.04 | < 5.70
CC(=O)c1c([S+]([O-])Cc2ccc([N+](=O)[O-])cc2)[nH]c2c(Br)ccc(Cl)c2c1=O (stereo not drawn) [Compound 33, 3-acetyl-8-bromo-5-chloro-2-((4-nitrobenzyl)sulfinyl)quinolin-4(1H)-one] | 5.89 | < 5.70 | 5.75 | 5.99 | 5.84 | 6.01 | < 5.70 | < 5.70 | < 5.70 | < 5.70 | < 5.00 | < 5.70 | < 5.70 | 5.98 | < 5.70
COc1cc(C[S+]([O-])c2[nH]c3c(Br)ccc(Cl)c3c(=O)c2C(C)=O)cc(OC)c1 (stereo not drawn) [Compound 59, 3-acetyl-8-bromo-5-chloro-2-((3,5-dimethoxybenzyl)sulfinyl)quinolin-4(1H)-one] | 5.81 | < 5.70 | 5.70 | 6.00 | 5.86 | 5.94 | < 5.70 | < 5.70 | < 5.70 | < 5.70 | < 5.00 | < 5.70 | < 5.70 | 5.86 | < 5.70
CC(=O)c1c([S+]([O-])Cc2ccc(F)c(Cl)c2)[nH]c2c(Br)ccc(Cl)c2c1=O (stereo not drawn) [Compound 31, 3-acetyl-8-bromo-5-chloro-2-((3-chloro-4-fluorobenzyl)sulfinyl)quinolin-4(1H)-one] | < 5.70 | 5.78 | 5.71 | 6.03 | 5.87 | 5.96 | 5.74 | < 5.70 | < 5.70 | < 5.70 | < 5.00 | < 5.70 | < 5.70 | 5.93 | < 5.70
CC(=O)c1c([S+]([O-])Cc2c(F)cccc2Cl)[nH]c2c(Br)ccc(Cl)c2c1=O (stereo not drawn) [Compound 74, 3-acetyl-8-bromo-5-chloro-2-((2-chloro-6-fluorobenzyl)sulfinyl)quinolin-4(1H)-one] | 5.87 | < 5.70 | 5.70 | < 5.70 | 5.77 | < 5.70 | < 5.70 | < 5.70 | < 5.70 | < 5.70 | < 5.00 | < 5.70 | < 5.70 | 5.93 | < 5.70
CC(=O)c1c([S+]([O-])Cc2ccc(C(F)(F)F)cc2)[nH]c2c(Br)ccc(Cl)c2c1=O (stereo not drawn) [Compound 70, 3-acetyl-8-bromo-5-chloro-2-((4-(trifluoromethyl)benzyl)sulfinyl)quinolin-4(1H)-one] | 5.82 | 5.80 | < 5.70 | 5.96 | 5.88 | 5.88 | 5.72 | < 5.70 | < 5.70 | < 5.70 | < 5.00 | < 5.70 | < 5.70 | 5.84 | < 5.70
CC(=O)c1c([S+]([O-])Cc2ccc(OC(F)(F)F)cc2)[nH]c2c(Br)ccc(Cl)c2c1=O (stereo not drawn) [Compound 71, 3-acetyl-8-bromo-5-chloro-2-((4-(trifluoromethoxy)benzyl)sulfinyl)quinolin-4(1H)-one] | < 5.70 | < 5.70 | < 5.70 | 5.90 | 5.82 | 5.78 | < 5.70 | < 5.70 | < 5.70 | < 5.70 | < 5.00 | < 5.70 | < 5.70 | 5.78 | < 5.70
CC(=O)c1c([S+]([O-])Cc2ccc(F)cc2F)[nH]c2c(Br)ccc(Cl)c2c1=O (stereo not drawn) [Compound 29, 3-acetyl-8-bromo-5-chloro-2-((2,4-difluorobenzyl)sulfinyl)quinolin-4(1H)-one] | 5.85 | < 5.70 | 5.76 | 5.97 | 5.84 | 5.93 | 5.78 | 5.98 | < 5.70 | < 5.70 | < 5.00 | < 5.70 | < 5.70 | 5.92 | < 5.70
CC(=O)c1c([S+]([O-])Cc2ccc([S+]([O-])C(F)(F)F)cc2)[nH]c2c(Br)ccc(Cl)c2c1=O (stereo not drawn) [Compound 64, 3-acetyl-8-bromo-5-chloro-2-((4-((trifluoromethyl)sulfinyl)benzyl)sulfinyl)quinolin-4(1H)-one] | 5.95 | < 5.70 | 5.82 | 5.97 | 5.84 | 5.96 | 5.73 | < 5.70 | < 5.70 | < 5.70 | < 5.00 | < 5.70 | < 5.70 | 5.91 | < 5.70
CC(=O)c1c([S+]([O-])Cc2cc(F)cc(S(F)(F)(F)(F)F)c2)[nH]c2c(Br)ccc(Cl)c2c1=O (stereo not drawn) [Compound 76, 3-acetyl-8-bromo-5-chloro-2-((3-fluoro-5-(pentafluoro--sulfanyl)benzyl)sulfinyl)quinolin-4(1H)-one] | < 5.70 | 5.78 | < 5.70 | 5.92 | 5.79 | 5.87 | < 5.70 | < 5.70 | < 5.70 | < 5.70 | < 5.00 | < 5.70 | < 5.70 | 5.81 | < 5.70
COc1cc(S(F)(F)(F)(F)F)ccc1C[S+]([O-])c1[nH]c2c(Br)ccc(Cl)c2c(=O)c1C(C)=O (stereo not drawn) [Compound 75, 3-acetyl-8-bromo-5-chloro-2-((2-methoxy-4-(pentafluoro--sulfanyl)benzyl)sulfinyl)quinolin-4(1H)-one] | < 5.70 | 5.90 | < 5.70 | 5.96 | 5.89 | 5.94 | < 5.70 | < 5.70 | < 5.70 | < 5.70 | < 5.00 | < 5.70 | < 5.70 | 5.88 | < 5.70
CC(=O)c1c([S+]([O-])Cc2c(F)c(F)c(F)c(F)c2F)[nH]c2c(Br)ccc(Cl)c2c1=O (stereo not drawn) [Compound 78, 3-acetyl-8-bromo-5-chloro-2-(((perfluorophenyl)methyl)sulfinyl)quinolin-4(1H)-one] | < 5.70 | < 5.70 | < 5.70 | < 5.70 | < 5.70 | < 5.70 | 5.70 | < 5.70 | < 5.70 | < 5.70 | < 5.00 | < 5.70 | < 5.70 | 5.85 | < 5.70
COC(=O)c1ccc(C[S+]([O-])c2[nH]c3c(Cl)ccc(Cl)c3c(=O)c2C(C)=O)o1 (stereo not drawn) [Compound 89, methyl 5-(((3-acetyl-5,8-dichloro-4-oxo-1,4-dihydroquinolin-2-yl)sulfinyl)methyl)furan-2-carboxylate] | 5.76 | < 5.70 | < 5.70 | 5.86 | < 5.70 | < 5.70 | 5.77 | < 5.70 | < 5.70 | < 5.70 | < 5.00 | < 5.70 | < 5.70 | 5.85 | < 5.70
CC(=O)c1c([S+]([O-])Cc2cccc(F)c2)[nH]c2c(Br)ccc(Cl)c2c1=O (stereo not drawn) [Compound 50, 3-acetyl-8-bromo-5-chloro-2-((3-fluorobenzyl)sulfinyl)quinolin-4(1H)-one] | < 5.70 | < 5.70 | < 5.70 | 5.92 | 5.78 | 5.85 | < 5.70 | < 5.70 | < 5.70 | < 5.70 | < 5.00 | < 5.70 | < 5.70 | 5.84 | < 5.70
CC(=O)c1c([S+]([O-])Cc2ccc(I)cc2)[nH]c2c(Cl)ccc(Cl)c2c1=O (stereo not drawn) [Compound 83, 3-acetyl-5,8-dichloro-2-((4-iodobenzyl)sulfinyl)quinolin-4(1H)-one] | < 5.70 | 5.91 | < 5.70 | 5.88 | 5.90 | 5.76 | 5.93 | < 5.70 | < 5.70 | < 5.70 | < 5.00 | < 5.70 | < 5.70 | 5.84 | < 5.70
CC(=O)c1c([S+]([O-])Cc2ccc([N+](=O)[O-])cc2)[nH]c2c(Cl)ccc(Cl)c2c1=O (stereo not drawn) [Compound 57, 3-acetyl-5,8-dichloro-2-((4-nitrobenzyl)sulfinyl)quinolin-4(1H)-one] | < 5.70 | < 5.70 | < 5.70 | < 5.70 | < 5.70 | < 5.70 | < 5.70 | < 5.70 | < 5.70 | < 5.70 | < 5.00 | < 5.70 | < 5.70 | < 5.70 | < 5.70
CC(=O)c1c([S+]([O-])Cc2ccc(C#N)cc2)[nH]c2c(Br)ccc(Cl)c2c1=O (stereo not drawn) [Compound 73, 4-(((3-acetyl-8-bromo-5-chloro-4-oxo-1,4-dihydroquinolin-2-yl)sulfinyl)methyl)benzonitrile] | 5.88 | < 5.70 | 5.80 | < 5.70 | < 5.70 | < 5.70 | < 5.70 | < 5.70 | < 5.70 | < 5.70 | < 5.00 | < 5.70 | < 5.70 | 5.78 | < 5.70
